# Assay results from PMC9863651, “Anti-Glioma Activity Achieved by Dual Blood–Brain Barrier/Glioma Targeting Naive Chimeric Peptides-Based Co-Assembled Nanophototheranostics” (Pharmaceutics, 2023).
# Columns and labels:
# [1] = test system: C6 cells; test: Localized chemo-PTT/PDT toxicity, brightfield imaging; format: cell-based, Rat; conditions: 100 μg/mL, 30 min
# Method: The localized collaborative chemo-phototoxicity of PINPs, in contrast to PNPs, was studied and then visualized using C6 cells. In short, to assess the thermal ablation effect, C6 cells (50,000/well in 6-well dishes) were seeded and cultured in complete media and they were treated with different formulations (100 μg/mL, for 30 min). The used complete growth media containing the formulations was then swapped with new phenol-free media without FBS. For a combined chemo-phototoxicity analysis, the corresponding wells containing cells were exposed to a NIR-808 laser for ~10 min, incubated for an additional 30 min, and subsequently imaged under a brightfield microscope (Olympus BX53; Tokyo, Japan).
# [2] = test system: C6 glioma cells; test: Scratch wound healing assay (cell migration); format: cell-based, Rat; conditions: 100 μg/mL, 1 h, NIR-808 10 min, 24 h after scraping
# Method: Scratch wound healing assays of the PNPs, PINPs, and ICG (100 μg/mL) were studied in C6 cells as described previously. This was followed by imaging of the cells which migrated towards the cell-free zone in the scrape at 0 and 24 h, using a brightfield inverted microscope (IX71; Olympus Corp., Tokyo, Japan). The cell migration was analyzed by measuring the dimension of the gap distance using the Adobe Photoshop CC software. The details of the process being used are provided in the Supplementary Materials. […]
# nanoparticle’s aqueous solution was monitored and recorded every single min by a digital […]
# 1.4.5. […]
# 1.4.6. Scratch Assay of PINPs Determined in C6 Glioma Cells […]
# 1.4.7. Localized Chemo-phototoxicity of PINPs Determined in C6 Cells
# Next, we quantified the synergistic chemo-phototoxicity of PINPs (10 μg/mL) in comparison to other individual moieties [PNPs (chemotherapy) and ICG (phototherapy)] in C6 cells. […]
# Following day cells were treated with different formulations for 30 min. […] Cells were incubated for another 24 h and were evaluated by standard MTT assay as described […]
# Figure S1. Size distribution profile of self-assembled peptide nanostructures determined in a mixture of HFIP-water at a ratio of 1:19 v/v. […]
smiles,measurement,setting,value
"CC1(C)C(/C=C/C=C/C=C/C=C2\N(CCCCS(=O)(=O)O)c3ccc4ccccc4c3C2(C)C)=[N+](CCCCS(=O)(=O)[O-])c2ccc3ccccc3c21 [ICG, indocyanine green]",cell death (brightfield images) after NIR-808 exposure,[1]; NIR-808 ~10 min,no cell death
same,cell death (brightfield images) in the dark / without NIR-808,[1]; no laser,no cell death
same,wound closure,[2],~ 100%
